Experiments:
[1] = test system: tramadol metabolism (O-desmethyl tramadol production) in rat liver microsomes; experiment: Liver microsomal incubation assay: inhibition of tramadol metabolism (O-desmethyl tramadol production) in RLM; assay type: in vitro ADME; conditions: rat, tramadol 60 µM
Procedure: (§1) All the substance meet the requirements for analysis.
(§2) To obtain the Michaelis kinetic parameters of tramadol in RLM and HLM, a 200 µL incubation system was established containing 2 µL RLM or HLM (0.2 mg/mL), 186 µL 1xPBS buffer (pH = 7.4), 2 µL tramadol (10–500 µM), and 10 µL NADPH (1 mM). The mixture was pre-incubated for 5 min without NADPH in a water bath shaking at 37 °C. Then, NADPH was added to initiate the reaction, and the mixture was incubated for another 30 min. The reaction was terminated by adding 400 µL of cold ACN and 20 µL of IS (500 ng/mL).
(§3) For drug-interaction screening, 100 µM of each drug (1.6 µL) was added to the system, and added PBS to the final volume of 200 uL. Tramadol concentration was set at 60 µM according to the Km.
(§4) To determine the half-maximal inhibitory concentration (IC50), the concentration of crizotinib was set at 0.01, 0.1, 1, 10, 25, 50, and 100 µM, while the concentration of tramadol was constant at 60 µM in RLM or 100 µM in HLM (according to Km).
(§5) All data were presented as mean ± SD (standard deviation).

[2] = test system: tramadol metabolism in rat liver microsomes (RLM); experiment: as above; assay type: in vitro ADME; conditions: RLM
Procedure: as §1, §2, §3, §4, §5

[3] = test system: tramadol metabolism in human liver microsomes (HLM); experiment: Liver microsomal incubation assay: inhibition of tramadol metabolism in HLM; assay type: in vitro ADME
Procedure: as §1, §2, §4, §5

[4] = test system: tramadol metabolism in human liver microsomes; experiment: as above; assay type: in vitro ADME; conditions: human, human liver microsomes, pH 7.4, probe tramadol 100 µM, tramadol 100 µM, crizotinib 0.01-100 µM
Procedure: as §1, §2, §4, §5

[5] = test system: liver, kidney and small intestine; experiment: Morphological examination (H&E staining) of liver, kidney and small intestine; assay type: in vivo, Sprague-Dawley rats; conditions: crizotinib 45 mg/kg, single dose or 7 consecutive days; vs control group E
Procedure: […] […] The blood, liver, kidney, and small intestine were harvested within 10 min and flash-frozen in liquid nitrogen before being transferred to −80 °C for later use.
Additionally, the tissues were fixed in 10% formalin solution and embedded in paraffin. Hematoxylin-eosin (H&E) staining was performed on paraffin sections, which had been dewaxed, dehydrated, and sealed with neutral gum. Pannoramic MIDI was then used to observe the tissues.

[6] = Serum biochemical analysis (ALT, AST); assay type: in vivo, Sprague-Dawley rats; conditions: vs control
Procedure: (§6) Nine rats were randomly divided into three groups (n = 3): group E received 0.5% CMC-Na for 7 days; group F received 45 mg/kg crizotinib for 6 days; and group G received 45 mg/kg of crizotinib for 7 days. […] The blood, liver, kidney, and small intestine were harvested within 10 min and flash-frozen in liquid nitrogen before being transferred to −80 °C for later use.
Serum was collected after centrifugation of blood sample at 2400 × g for 5 min at 4 °C. The levels of ALT and AST were detected according to the protocol of ALT and AST activity assay kits.

[7] = test system: total CYP in rat liver microsomes; experiment: Carbon monoxide differential UV spectrophotometric quantification of total CYP; assay type: in vitro ADME; conditions: RLM from crizotinib-treated rats (45 mg/kg); CO quantitative method
Procedure: as §6
The CO quantitative method was utilized to measure the total quantity of CYP in rat liver microsomes. The microsomes were transferred to a 1.5 mL centrifuge tube and CO gas was introduced for 60 s. Next, sodium dithionite powder was added and mixed thoroughly. After two minutes, the absorbance of the liquid was measured at 450 nm and 490 nm ultraviolet wavelengths using an ultraviolet and visible spectrophotometer to calculate the total amount of CYP.

[8] = crizotinib 45 mg/kg for consecutive 7 days
[9] = crizotinib 45 mg/kg single dose

C[C@@H](Oc1cc(-c2cnn(C3CCNCC3)c2)cnc1N)c1c(Cl)ccc(F)c1Cl [crizotinib]
inhibition at 30 min, 100 µM ([1]; pH 7.4, RLM, 100 µM of each drug, vs control group, read-out: inhibitory rate on tramadol metabolism (production of O-desmethyl tramadol)): 97.2%
IC50 at 30 min ([1]; pH 7.4, RLM, crizotinib 0.01-100 µM): 8.74 ± 0.18 µM
inhibition mode of tramadol metabolism ([2]; Lineweaver-Burk plot): non-competitive
Ki ([2]; Lineweaver-Burk, crizotinib 0, 4, 8, 16 µM, tramadol 15-120 µM): 4.17 µM
inhibition mode of tramadol metabolism ([3]; Lineweaver-Burk plot): non-competitive
Ki ([3]; Lineweaver-Burk, crizotinib 0, 5, 10, 20 µM, tramadol 25-200 µM): 14.4 µM
IC50 at 30 min [4]: 11.9 ± 0.25 µM
changes in cell morphology, size, arrangement, nuclear morphology of liver, kidney and small intestine (H&E) [5]: no obvious changes
level of serum ALT [6, 8]: increased significantly
level of serum AST [6, 8]: increased significantly
level of serum ALT [6, 9]: no significant change
level of serum AST [6, 9]: no significant change
total amount of CYP [7]: decreased
